# Values joined by “and” are separate entries in the source; they are usually repeats but may differ in a detail not shown here. Identical values can stand only once. Like-named read-outs stand apart in the source and are kept apart here.
# Legend:
# HeLa = experiment: MTT cytotoxicity assay, cervical cancer; assay type: cell-based; conditions: for IC50: 72 h, MTT, read-out: IC50 ± SEM, HeLa; for cytotoxicity lower than doxorubicin: ratio of IC50
# Protocol: (§1) Cell lines were obtained from the American Type Culture Collection: U-87 MG (ATCC number HBT-14), MCF7 (ATCC number HTB-22), A549 (ATCC number CRM-CCL), HeLa (ATCC number CCL-2). Immortalized human fibroblasts hTERT (as noncancerous control) were obtained from ICG SB RAS (Novosibirsk, Russia). DMEM with 10% fetal bovine serum (Gibco, Amarillo, TX, USA) was used for culturing. Optical density was measured on a Multiskan RC spectrophotometer (LabSystems, Vantaa, Finland). The MTT test was carried out according to the standard procedure using the reagent 3-(4,5-dimethylthiazol-2-yl)-2,5-diphen-yltetrazolium bromide (MTT, Sigma). Cells were seeded in 96 well plates at 5000 cells/well and incubated for 24 h at 37 C in 5% CO2. After 24 h, various concentrations of test compounds ([…]) in DMSO were added and the cells were incubated for an additional 72 h. The viability for DMSO (negative control) was calculated as 100%. All culture experiments were carried out independently three times with two repeats in the experiment, and the final result is presented as concentration, which causes 50% inhibition of cell population growth (IC50 ± SEM).
# hTERT = experiment: MTT cytotoxicity assay, immortalized fibroblasts; assay type: cell-based, human; conditions: for IC50: Homo sapiens, Fibroblast, 72 h, read-out: IC50 ± SEM, hTERT
# Protocol: (§2) The cytotoxicity study of the quinolinones 2–3 was evaluated in vitro by MTT assay on immortalized humane fibroblasts (hTERT), humane breast cancer cell line (MCF7) and humane glioblastoma cell line (U-87MG and) versus doxorubicin as a reference compound.
# as §1
# [1] = tested on: Histamine-Induced Inflammation; experiment: Histamine-induced mouse paw edema model; assay type: in vivo, outbred albino male mice; conditions: for anti-inflammatory effect (in words) / inhibition in vivo at 20 mg/kg: 20 mg/kg i.p.; for inhibition in vivo at 20 mg/kg: Mus musculus, ip, anti-inflammatory activity relative to control group, read-out: Histamine-Induced Inflammation AIA, %; for Histamine-Induced Inflammation IEI, %: inflammatory edema index, 20 mg/kg i.p. 1 h before histamine, mean ± SEM
# Description: (§3) The anti-inflammatory activity of the synthesized compounds was investigated in vivo in comparison with indomethacin on two models of local inflammation induced by histamine or concanavalin A injection. The last one was used as the inductor of allergic-like inflammation, owing to its immunogenic activity. The results were expressed as values of inflammatory edema indexes (IEI) and percentages of anti-inflammatory activity (AIA) relative to the control group (Table 1).
# (§4) The pharmacological studies were carried out on outbred albino male mice and C57BL/6 female mice weighing 20–25 g with eight animals in each group. The anti-inflammatory activity of compounds 2–3 was evaluated in the histamine-induced and concanavalin A-induced mouse paw edema models. The test compounds were dissolved in saline containing 0.5% Tween 80 just before intraperitoneal administration at the dose of 20 mg/kg. The reference agent indomethacin (‘Fluka BioChemica’) was administered by the same method and dose. The control group of animals received an equivalent volume of water–Tween mixture.
# The 8 outbred male albino mice were subplantar injected into the hind paw with 0.05 mL 0.01% histamine (“Sigma Aldrich”, Saint Louis, MO, USA) in water solution. The tested compounds were administered 1 h before the histamine injection. The animals were sacrificed by cervical dislocation 5 h after the phlogogen injection.
# (§5) Both hind paws were cut off at the ankle joint and weighed. The ratio of the difference in weight between the treated and untreated hind paws to the weight of the untreated hind paw was used as an inflammatory edema index (IEI). The relative percentage of IEI versus control IEI (100%) was calculated for each test group. The anti-inflammatory activity (AIA) was presented as a difference between 100% in the control group and relative percentage of IEI in the test group.
# MCF7 = experiment: MTT cytotoxicity assay, breast cancer; assay type: cell-based, human; conditions: for IC50: Homo sapiens, MCF7, 72 h, read-out: IC50 ± SEM, MCF7
# Protocol: as §2, §1
# A549 = experiment: MTT cytotoxicity assay, A549; assay type: cell-based; conditions: Homo sapiens, 72 h, read-out: IC50 ± SEM, A549
# Protocol: as §1
# U-87 MG = experiment: MTT cytotoxicity assay, glioblastoma; assay type: cell-based, human; conditions: for IC50: Homo sapiens, U-87 MG, 72 h, read-out: IC50 ± SEM, U-87 MG
# Protocol: as §2, §1
# [2] = tested on: Concanavalin A-Induced Inflammation; experiment: Concanavalin A-induced mouse paw edema model; assay type: in vivo, C57BL/6 female mice; conditions: for anti-inflammatory effect (in words): 20 mg/kg i.p.; for inhibition in vivo at 20 mg/kg: Mus musculus, ip, anti-inflammatory activity relative to control group, read-out: Concanavalin A-Induced Inflammation AIA, %; for inhibition in vivo at 20 mg/kg / Concanavalin A-Induced Inflammation IEI, %: 20 mg/kg i.p. twice; for Concanavalin A-Induced Inflammation IEI, %: inflammatory edema index, 24 h and 1 h before phlogogen, mean ± SEM; for activity higher than that of indomethacin (reference drug): 20 mg/kg double i.p. administration
# Description: as §3, §4
# The 8 female mice C57Bl/6 were subplantar injected into the hind paw with 0.02 mL 0.5% concanavaline A (“Sigma Aldrich”) aqueous solution. The test compounds were administered twice 24 h and 1 h before phlogogen. The animals were sacrificed by cervical dislocation 1 h after the phlogogen injection.
# as §5
melting point [°C],Structure (SMILES),"IC50 (HeLa; Homo sapiens, HeLa) [µM]",IC50 (hTERT) [µM],anti-inflammatory effect (in words) [1],inhibition in vivo at 20 mg/kg [1] [%],"Histamine-Induced Inflammation IEI, % [1] [%]",IC50 (MCF7) [µM],IC50 (A549) [µM],IC50 (U-87 MG) [µM],anti-inflammatory effect (in words) [2],inhibition in vivo at 20 mg/kg [2] [%],"Concanavalin A-Induced Inflammation IEI, % [2] [%]",cytotoxicity lower than doxorubicin (HeLa; HeLa) [times],cytotoxic effect on immortal fibroblasts (in words) (hTERT),activity higher than that of indomethacin (reference drug) [2],antitumor effect on breast cancer cell culture (in words) (MCF7),antitumor effect on multiform glioblastoma cell culture (in words) (U-87 MG),IC50 (HeLa) [µM]
312 to 313,"CC(=O)c1ccc(C(=O)c2c(-c3ccccc3)nc3c4c(cccc24)C(=O)c2ccccc2-3)cc1 [2b, 2-benzo-3-(p-acetylbenzoyl)-7H-dibenzo[de,h]quinolin-7-one]",> 100,> 100,most potent effects,33,23.0 ± 1.9,> 100,> 100,> 100,most potent effects,43,21.4 ± 1.6,–,–,–,–,–,–
279 to 280,"COc1ccc(C(=O)c2c(-c3ccccc3)nc3c4c(cccc24)C(=O)c2ccccc2-3)cc1 [2d, 2-benzo-3-(p-methoxybenzoyl)-7H-dibenzo[de,h]quinolin-7-one]",> 100,> 100,most potent effects,34,22.7 ± 2.3,> 100,> 100,> 100,most potent effects,26,27.9 ± 1.2,–,–,–,–,–,–
324 to 325,"CC(=O)c1ccc(-c2cc3cccc4c3c(n2)-c2ccccc2C4=O)cc1 [3b, 2-(p-acetylphenyl)-7H-dibenzo[de,h]quinolin-7one]",> 100,> 100,most potent effects,36,22.1 ± 1.8,> 100,> 100,> 100,most potent effects,52,18.0 ± 2.0,–,–,–,–,–,–
295 to 296,"O=C1c2ccccc2-c2nc(-c3ccc([N+](=O)[O-])cc3)cc3cccc1c23 [3c, 2-(p-nitrophenyl)-7H-dibenzo[de,h]quinolin-7-one]",–,–,–,–,–,–,–,–,–,–,–,–,–,–,–,–,–
203 to 204,"COc1ccc(-c2cc3cccc4c3c(n2)-c2ccccc2C4=O)cc1 [3d, 2-(p-methoxyphenyl)-7H-dibenzo[de,h]quinolin-7-one]",> 100,> 100,–,42,19.9 ± 2.6,> 100,> 100,> 100,–,60,15.2 ± 1.6,–,–,1.5 times and 1.3–1.4 times,–,–,–
–,CCCCCc1cc2cccc3c2c(n1)-c1ccccc1C3=O [3h],> 100,> 100,–,30,23.9 ± 1.7,> 100,> 100,> 100,–,48,19.7 ± 2.3,–,–,1.3–1.4 times,–,–,–
–,CN(C)c1ccc(-c2cc3cccc4c3c(n2)-c2ccccc2C4=O)cc1 [3i],> 100,> 100,most potent effects,34,22.6 ± 2.3,> 100,> 100,> 100,most potent effects,51,18.5 ± 1.6,–,–,1.3–1.4 times,–,–,–
–,CC(C)(O)c1cc2cccc3c2c(n1)-c1ccccc1C3=O [3j],21.3 ± 5.9,> 100,–,16,28.9 ± 2.0,92.9 ± 7.2,> 100,50.1 ± 5.9,–,41,22.1 ± 2.5,3.5,did not have a cytotoxic effect,–,weak antitumor effect,weak antitumor effect,–
–,Cc1c(-c2cc3cccc4c3c(n2)-c2ccccc2C4=O)cnn1C [3k],21.3,> 100,–,34,22.7 ± 1.7,> 100,> 100,> 100,–,18,31.1 ± 2.4,3.5,did not have a cytotoxic effect,–,–,–,22.7 ± 7.3
232.5 to 233.5,"COc1ccc(C(=O)c2c(C)nc3c4c(cccc24)C(=O)c2ccccc2-3)cc1 [4d, 2-methyl-3-(p-methoxybenzoyl)-7H-dibenzo[de,h]quinolin-7-one]",–,–,–,–,–,–,–,–,–,–,–,–,–,–,–,–,–
–,"COc1cccc2c1C(=O)c1c(O)c3c(c(O)c1C2=O)C[C@@](O)(C(=O)CO)C[C@@H]3O[C@H]1C[C@H](N)[C@H](O)[C@H](C)O1 [Doxorubicin, doxorubicin, reference compound]",6 ± 1,4.1 ± 1,–,–,–,3.6 ± 0.4,4.05 ± 0.9,2.3 ± 0.6,–,–,–,–,–,–,–,–,–
–,"COc1ccc2c(c1)c(CC(=O)O)c(C)n2C(=O)c1ccc(Cl)cc1 [Indomethacin, indomethacin, reference compound]",–,–,–,48,17.8 ± 2.7,–,–,–,–,38,23.4 ± 2.2,–,–,–,–,–,–

Structure (SMILES),melting point [°C],"IC50 (HeLa; Homo sapiens, HeLa) [µM]",IC50 (hTERT) [µM],anti-inflammatory effect (in words) [1],inhibition in vivo at 20 mg/kg [1] [%],"Histamine-Induced Inflammation IEI, % [1] [%]",IC50 (MCF7) [µM],IC50 (A549) [µM],IC50 (U-87 MG) [µM],anti-inflammatory effect (in words) [2],inhibition in vivo at 20 mg/kg [2] [%],"Concanavalin A-Induced Inflammation IEI, % [2] [%]",cytotoxicity lower than doxorubicin (HeLa; HeLa) [times],cytotoxic effect on immortal fibroblasts (in words) (hTERT),activity higher than that of indomethacin (reference drug) [2],antitumor effect on breast cancer cell culture (in words) (MCF7),antitumor effect on multiform glioblastoma cell culture (in words) (U-87 MG),IC50 (HeLa) [µM]
"O=C1c2ccccc2-c2nc(-c3ccccc3)cc3cccc1c23 [3a, 2-phenyl-7H-dibenzo[de,h]quinolin-7-one]",207 to 208,86.3 ± 12.9,> 100,most potent effect,60,13.9 ± 0.8,> 100,> 100,> 100,–,53,17.8 ± 1.8,14,did not have a cytotoxic effect,1.3–1.4 times,–,–,–

# Reference: paper PMC8621605, “Cascade Transformations of 1-R-Ethynyl-9,10-anthraquinones with Amidines: Expanding Access to Isoaporphinoid Alkaloids” (Molecules, 2021)
